Reference: the supplement of paper PMC10307832

Tests used:
Test in all cases: relative viability (nuclei count vs DMSO), 5 days (fraction); higher = more cells survive
[1] = compound: COc1cc2nc(N3CCCN(C)CC3)nc(NC3CCN(Cc4ccccc4)CC3)c2cc1OC + CC(=O)Nc1cccc(-n2c(=O)n(C3CC3)c(=O)c3c(Nc4ccc(I)cc4F)n(C)c(=O)c(C)c32)c1 [Trametinib] (partner 0.02 µM)
Outline: (§1)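 Lung cancer cell lines were pin-tool dosed in 1536-well plates on the day after seeding, with either a lone drug or a fixed anchor-drug dose plus five library-drug doses (not always all listed) in √10 steps. Nuclei were counted on 4× images after 5 days. Relative viability is the ratio of treated-well to vehicle-well nuclei counts, with each value a median of duplicate plates.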

[2] = compound: Cc1cc([C@@H](C)Nc2ccccc2C(=O)O)c2nc(N3CCOCC3)cc(=O)n2c1 [AZD6482] + O=C(c1cc(Cc2n[nH]c(=O)c3ccccc23)ccc1F)N1CCN(C(=O)C2CC2)CC1 [Olaparib] (partner 8 µM)
Outline: as §1

[3] = compound: COc1cc2nc(N3CCCN(C)CC3)nc(NC3CCN(Cc4ccccc4)CC3)c2cc1OC + CCNC(=O)c1noc(-c2cc(C(C)C)c(O)cc2O)c1-c1ccc(CN2CCOCC2)cc1 [Luminespib] (partner 0.01 µM)
Outline: as §1

[4] = compound: Cc1cc([C@@H](C)Nc2ccccc2C(=O)O)c2nc(N3CCOCC3)cc(=O)n2c1 [AZD6482] + CS(=O)(=O)N1CCN(Cc2cc3nc(-c4cccc5[nH]ncc45)nc(N4CCOCC4)c3s2)CC1 [Pictilisib] (partner 1 µM)
Outline: as §1

Cell Line	relative viability ([1]; first compound 0.2 µM)	relative viability ([1]; first compound 0.6325 µM)	relative viability ([1]; first compound 2 µM)	relative viability ([1]; first compound 6.325 µM)	relative viability ([2]; first compound 0.08 µM)	relative viability ([2]; first compound 0.253 µM)	relative viability ([2]; first compound 0.8 µM)	relative viability ([2]; first compound 2.53 µM)	relative viability ([2]; first compound 8 µM)	relative viability ([3]; first compound 0.2 µM)	relative viability ([3]; first compound 0.6325 µM)	relative viability ([3]; first compound 2 µM)	relative viability ([3]; first compound 6.325 µM)	relative viability ([4]; first compound 0.08 µM)	relative viability ([4]; first compound 0.253 µM)	relative viability ([4]; first compound 0.8 µM)	relative viability ([4]; first compound 2.53 µM)	relative viability ([4]; first compound 8 µM)
NCI-H460	0.13	0.16	0.107	0.0898	0.335	0.394	0.435	0.216	0.327	0.0382	0.0418	0.0348	0.0281	0.332	0.336	0.379	0.249	0.331
NCI-H520	0.744	0.637	0.674	0.176	0.295	0.266	0.262	0.162	0.185	0.321	0.227	0.27	0.214	0.254	0.197	0.27	–	0.316
NCI-H596	0.748	0.765	0.822	0.655	0.596	0.68	1.01	0.737	0.598	0.87	0.871	0.927	1.02	0.324	0.349	0.508	0.343	0.441
NCI-H647	0.514	0.495	0.527	0.238	0.544	0.482	0.554	0.373	0.419	0.352	0.249	0.159	0.292	0.358	–	0.38	0.249	0.408
NCI-H650	1.01	1.06	1	0.978	0.315	0.364	0.337	0.31	0.268	0.746	0.628	0.783	0.661	0.931	–	0.908	0.541	0.813
NCI-H661	0.612	0.563	0.648	0.586	0.733	0.857	0.83	0.719	0.729	0.903	0.894	0.911	0.957	0.326	0.353	0.484	–	0.356
NCI-H727	0.425	0.368	0.373	0.361	0.681	0.666	0.66	–	0.669	0.332	0.355	0.512	0.56	0.357	0.302	0.356	–	0.404
NCI-H838	0.536	0.556	0.532	0.391	0.631	0.712	0.651	0.433	0.395	0.378	0.324	0.296	0.294	0.461	0.464	0.442	0.339	0.487
NCI-H1355	0.419	0.458	0.433	0.385	0.597	0.63	0.708	0.522	0.564	0.715	0.693	0.734	0.773	0.302	0.43	0.425	0.244	0.453
NCI-H1395	1.01	1.03	1.13	0.806	0.406	0.429	0.501	0.388	0.32	0.7	0.695	0.7	0.71	0.549	0.459	0.536	0.422	0.438
NCI-H1437	0.492	0.515	0.527	0.325	0.644	0.672	0.651	0.599	0.557	1.12	1.06	1.21	0.965	0.471	0.326	0.473	0.319	0.392
NCI-H1650	0.576	0.601	0.499	0.511	0.652	0.761	0.643	0.736	0.813	0.181	0.19	0.197	0.174	0.55	–	0.664	0.398	0.843
NCI-H1651	0.828	0.815	0.888	0.848	0.174	0.198	0.197	0.201	0.187	0.905	0.846	1.14	0.804	0.596	0.58	0.569	0.432	0.508
NCI-H1666	0.821	0.781	0.774	0.799	0.731	0.722	0.777	0.712	0.773	0.973	0.997	1.11	0.947	0.437	0.547	0.558	0.437	0.405
NCI-H1734	0.657	0.697	0.738	0.552	0.509	0.538	0.531	0.365	0.509	0.182	0.194	0.183	0.172	0.395	0.452	0.485	0.305	0.408
NCI-H1755	0.797	0.75	0.713	0.746	0.839	0.755	0.769	0.583	0.601	0.44	0.536	0.406	0.478	0.274	0.317	0.372	0.213	0.43
NCI-H1792	0.435	0.47	0.466	0.399	0.151	0.345	0.365	0.234	0.138	–	0.377	0.419	0.721	0.224	0.237	0.288	0.191	0.213
NCI-H1793	0.374	0.39	0.412	0.373	0.559	0.413	0.502	0.306	0.406	0.18	0.193	0.134	0.154	0.261	0.336	0.293	–	0.259
